# From PubChem BioAssay (NCI)
#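 Step 1: Grow cells in 96-well plates. Step 2: Expose to compound for 48 hours at 5 concentrations. Step 3: Interpolate endpoints linearly; if unreached, use highest concentration. Definition used: TGI = concentration required for complete inhibition of growth.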
# What was measured:
# Assay in all cases: NCI anticancer screen, dose series, 48 h
# SN12C renal = test system: SN12C renal
# EKVX NSCLC = test system: EKVX NSCLC
# K-562 leukemia = test system: K-562 leukemia
# BT-549 breast = test system: BT-549 breast
# DU-145 prostate = test system: DU-145 prostate
# HOP-62 NSCLC = test system: HOP-62 NSCLC
# SR leukemia = test system: SR leukemia
# PC-3 prostate = test system: PC-3 prostate
# A549 NSCLC = test system: A549 NSCLC
# ACHN renal = test system: ACHN renal
# T-47D breast = test system: T-47D breast
# MOLT-4 leukemia = test system: MOLT-4 leukemia
# UACC-257 melanoma = test system: UACC-257 melanoma
# TK-10 renal = test system: TK-10 renal
# UO-31 renal = test system: UO-31 renal
# SK-OV-3 ovarian = test system: SK-OV-3 ovarian
# NCI/ADR-RES ovarian = test system: NCI/ADR-RES ovarian
# 786-0 renal = test system: 786-0 renal
# NCI-H226 lung = test system: NCI-H226 lung
# SF-295 CNS = test system: SF-295 CNS
# HL-60(TB) leukemia = test system: HL-60(TB) leukemia
# SNB-75 CNS = test system: SNB-75 CNS
# RPMI-8226 leukemia = test system: RPMI-8226 leukemia
# SW-620 colon = test system: SW-620 colon
# HOP-92 NSCLC = test system: HOP-92 NSCLC
# SK-MEL-5 melanoma = test system: SK-MEL-5 melanoma
# COLO 205 colon = test system: COLO 205 colon
# SNB-19 CNS = test system: SNB-19 CNS
# U251 CNS = test system: U251 CNS
# NCI-H460 lung = test system: NCI-H460 lung
# OVCAR-5 ovarian = test system: OVCAR-5 ovarian
# CCRF-CEM leukemia = test system: CCRF-CEM leukemia
# MCF7 breast = test system: MCF7 breast
# MDA-MB-435 = test system: MDA-MB-435
# CAKI-1 renal = test system: CAKI-1 renal
# SK-MEL-28 melanoma = test system: SK-MEL-28 melanoma
# LOX IMVI melanoma = test system: LOX IMVI melanoma
# OVCAR-4 ovarian = test system: OVCAR-4 ovarian
# KM12 colon = test system: KM12 colon
# MDA-N = test system: MDA-N
# M14 melanoma = test system: M14 melanoma
# SK-MEL-2 melanoma = test system: SK-MEL-2 melanoma
# OVCAR-8 ovarian = test system: OVCAR-8 ovarian
# OVCAR-3 ovarian = test system: OVCAR-3 ovarian
# HCT-116 colon = test system: HCT-116 colon
# HCT-15 colon = test system: HCT-15 colon
# HCC-2998 colon = test system: HCC-2998 colon
# A498 renal = test system: A498 renal
# RXF 393 renal = test system: RXF 393 renal
# NCI-H23 lung = test system: NCI-H23 lung
# UACC-62 melanoma = test system: UACC-62 melanoma
# MDA-MB-231 breast = test system: MDA-MB-231 breast
# IGROV1 ovarian = test system: IGROV1 ovarian
# HS 578T breast = test system: HS 578T breast
# SF-268 CNS = test system: SF-268 CNS
# NCI-H522 lung = test system: NCI-H522 lung
# MALME-3M melanoma = test system: MALME-3M melanoma
# HT29 colon = test system: HT29 colon
# SF-539 CNS = test system: SF-539 CNS
smiles,measurement,setting,value
COC(=O)C1(C(=O)OC)N=C(C)OC1C(C)C (stereo unspecified),TGI,SN12C renal,> 100 µM
same,TGI,EKVX NSCLC,> 100 µM
same,TGI,K-562 leukemia,> 100 µM
same,TGI,BT-549 breast,> 100 µM
same,TGI,DU-145 prostate,> 100 µM
same,TGI,HOP-62 NSCLC,> 100 µM
same,TGI,SR leukemia,> 100 µM
same,TGI,PC-3 prostate,> 100 µM
same,TGI,A549 NSCLC,> 100 µM
same,TGI,ACHN renal,> 100 µM
same,TGI,T-47D breast,> 100 µM
same,TGI,MOLT-4 leukemia,> 100 µM
same,TGI,UACC-257 melanoma,> 100 µM
same,TGI,TK-10 renal,> 100 µM
same,TGI,UO-31 renal,> 100 µM
same,TGI,SK-OV-3 ovarian,> 100 µM
same,TGI,NCI/ADR-RES ovarian,> 100 µM
same,TGI,786-0 renal,> 100 µM
same,TGI,NCI-H226 lung,> 100 µM
same,TGI,SF-295 CNS,> 100 µM
same,TGI,HL-60(TB) leukemia,> 100 µM
same,TGI,SNB-75 CNS,> 100 µM
same,TGI,RPMI-8226 leukemia,> 100 µM
same,TGI,SW-620 colon,> 100 µM
same,TGI,HOP-92 NSCLC,> 100 µM
same,TGI,SK-MEL-5 melanoma,> 100 µM
same,TGI,COLO 205 colon,> 100 µM
same,TGI,SNB-19 CNS,> 100 µM
same,TGI,U251 CNS,> 100 µM
same,TGI,NCI-H460 lung,> 100 µM
same,TGI,OVCAR-5 ovarian,> 100 µM
same,TGI,CCRF-CEM leukemia,> 100 µM
same,TGI,MCF7 breast,> 100 µM
same,TGI,MDA-MB-435,> 100 µM
same,TGI,CAKI-1 renal,> 100 µM
same,TGI,SK-MEL-28 melanoma,> 100 µM
same,TGI,LOX IMVI melanoma,> 100 µM
same,TGI,OVCAR-4 ovarian,> 100 µM
same,TGI,KM12 colon,> 100 µM
same,TGI,MDA-N,> 100 µM
same,TGI,M14 melanoma,> 100 µM
same,TGI,SK-MEL-2 melanoma,> 100 µM
same,TGI,OVCAR-8 ovarian,> 100 µM
same,TGI,OVCAR-3 ovarian,> 100 µM
same,TGI,HCT-116 colon,> 100 µM
same,TGI,HCT-15 colon,> 100 µM
same,TGI,HCC-2998 colon,> 100 µM
same,TGI,A498 renal,> 100 µM
same,TGI,RXF 393 renal,> 100 µM
same,TGI,NCI-H23 lung,> 100 µM
COc1cc(C2C3=C(COC3=O)OC(C)(C)Oc3cc4c(cc32)OCO4)cc(OC)c1OC (stereo unspecified),TGI,SN12C renal,> 100 µM
same,TGI,EKVX NSCLC,> 100 µM
same,TGI,K-562 leukemia,> 36 µM
same,TGI,BT-549 breast,> 100 µM
same,TGI,HOP-62 NSCLC,> 100 µM
same,TGI,UACC-62 melanoma,> 20 µM
same,TGI,PC-3 prostate,> 100 µM
same,TGI,A549 NSCLC,> 100 µM
same,TGI,ACHN renal,> 100 µM
same,TGI,MDA-MB-231 breast,> 100 µM
same,TGI,IGROV1 ovarian,> 100 µM
same,TGI,MOLT-4 leukemia,> 100 µM
same,TGI,UACC-257 melanoma,> 100 µM
same,TGI,TK-10 renal,> 100 µM
same,TGI,HS 578T breast,> 100 µM
same,TGI,UO-31 renal,5.86 µM
same,TGI,SK-OV-3 ovarian,> 100 µM
same,TGI,NCI-H226 lung,> 100 µM
same,TGI,SF-295 CNS,0.532 µM
same,TGI,HL-60(TB) leukemia,1.26 µM
same,TGI,RPMI-8226 leukemia,> 87.3 µM
same,TGI,SW-620 colon,> 100 µM
same,TGI,SF-268 CNS,> 31.6 µM
same,TGI,HOP-92 NSCLC,> 100 µM
same,TGI,SK-MEL-5 melanoma,2.33 µM
same,TGI,COLO 205 colon,0.552 µM
same,TGI,U251 CNS,> 100 µM
same,TGI,NCI-H522 lung,30.1 µM
same,TGI,NCI-H460 lung,> 100 µM
same,TGI,OVCAR-5 ovarian,> 100 µM
same,TGI,MALME-3M melanoma,> 100 µM
same,TGI,MCF7 breast,> 100 µM
same,TGI,MDA-MB-435,0.5 µM
same,TGI,CAKI-1 renal,> 100 µM
same,TGI,SK-MEL-28 melanoma,> 100 µM
same,TGI,LOX IMVI melanoma,> 100 µM
same,TGI,OVCAR-4 ovarian,> 96.2 µM
same,TGI,KM12 colon,14.8 µM
same,TGI,MDA-N,3.56 µM
same,TGI,HT29 colon,0.662 µM
same,TGI,SK-MEL-2 melanoma,70.1 µM
same,TGI,OVCAR-8 ovarian,> 100 µM
same,TGI,SF-539 CNS,0.582 µM
same,TGI,HCT-116 colon,6.65 µM
same,TGI,HCC-2998 colon,> 100 µM
same,TGI,A498 renal,1.49 µM
same,TGI,NCI-H23 lung,> 100 µM
COc1cc(/C=C2/SC(c3ccccc3)N(c3cccc([N+](=O)[O-])c3)C2=O)cc(OC)c1OC (stereo unspecified),TGI,SN12C renal,> 100 µM
same,TGI,EKVX NSCLC,> 100 µM
same,TGI,K-562 leukemia,> 100 µM
same,TGI,BT-549 breast,> 100 µM
same,TGI,DU-145 prostate,> 100 µM
same,TGI,HOP-62 NSCLC,> 100 µM
same,TGI,UACC-62 melanoma,> 100 µM
same,TGI,A549 NSCLC,> 100 µM
same,TGI,ACHN renal,> 100 µM
same,TGI,MDA-MB-231 breast,> 100 µM
same,TGI,T-47D breast,> 100 µM
same,TGI,MOLT-4 leukemia,> 100 µM
same,TGI,UACC-257 melanoma,> 100 µM
same,TGI,TK-10 renal,> 100 µM
same,TGI,HS 578T breast,> 100 µM
same,TGI,UO-31 renal,> 100 µM
same,TGI,SK-OV-3 ovarian,> 100 µM
same,TGI,NCI/ADR-RES ovarian,> 100 µM
same,TGI,786-0 renal,> 100 µM
same,TGI,NCI-H226 lung,> 100 µM
same,TGI,SF-295 CNS,> 100 µM
same,TGI,HL-60(TB) leukemia,> 100 µM
same,TGI,RPMI-8226 leukemia,> 100 µM
same,TGI,SW-620 colon,> 100 µM
same,TGI,SF-268 CNS,> 100 µM
same,TGI,HOP-92 NSCLC,> 100 µM
same,TGI,SK-MEL-5 melanoma,> 100 µM
same,TGI,COLO 205 colon,> 100 µM
same,TGI,SNB-19 CNS,> 100 µM
same,TGI,U251 CNS,> 100 µM
same,TGI,NCI-H522 lung,> 100 µM
same,TGI,NCI-H460 lung,> 100 µM
same,TGI,OVCAR-5 ovarian,> 100 µM
same,TGI,MALME-3M melanoma,> 100 µM
same,TGI,CCRF-CEM leukemia,> 100 µM
same,TGI,MCF7 breast,> 100 µM
same,TGI,MDA-MB-435,86.4 µM
same,TGI,CAKI-1 renal,> 100 µM
same,TGI,SK-MEL-28 melanoma,> 100 µM
same,TGI,LOX IMVI melanoma,> 100 µM
same,TGI,OVCAR-4 ovarian,> 100 µM
same,TGI,KM12 colon,> 100 µM
same,TGI,MDA-N,78.6 µM
same,TGI,M14 melanoma,> 100 µM
same,TGI,SK-MEL-2 melanoma,> 100 µM
same,TGI,OVCAR-8 ovarian,> 100 µM
same,TGI,SF-539 CNS,> 100 µM
same,TGI,OVCAR-3 ovarian,> 100 µM
same,TGI,HCT-116 colon,> 100 µM
same,TGI,HCT-15 colon,> 100 µM
same,TGI,HCC-2998 colon,> 100 µM
same,TGI,A498 renal,> 100 µM
same,TGI,RXF 393 renal,> 100 µM
same,TGI,NCI-H23 lung,> 100 µM
